Assay results reported in article PMC8225200, “Epipregnanolone as a Positive Modulator of GABAA Receptor in Rat Cerebellar and Hippocampus Neurons” (Biomolecules, 2021).

Experiments:
Assay in all cases: whole-cell patch clamp, GABA-induced chloride current
Type in all cases: cell-based
[1] = tested on: T1, GABAA receptor (native, rat cerebellar Purkinje cells); conditions: positive allosteric modulator, 2 µM GABA co-applied, pH 7.4, holding -70 mV
T1 construct: gene Gabra1; native heteropentameric receptors in acutely isolated Purkinje neurons

[2] = tested on: T2, GABAA receptor (native, rat hippocampal CA3 pyramidal neurons); conditions: positive allosteric modulator; 2 µM GABA co-applied; pH 7.4; holding -70 mV
T2 construct: gene Gabra1; native heteropentameric receptors in acutely isolated CA3 pyramidal neurons; subunit composition not determined

[3] = tested on: T1, GABAA receptor (native, rat cerebellar Purkinje cells); conditions: weak inhibition; 2 µM GABA co-applied; pH 7.4; holding -70 mV

With CC(=O)[C@H]1CC[C@H]2[C@@H]3CC[C@H]4C[C@H](O)CC[C@]4(C)[C@H]3CC[C@]12C [ALLO, 3α-hydroxy-5α-pregnan-20-one] the EC50 ([1]; fit to rising phase of bell-shaped curve) was 0.29 ± 0.06 µM.

In the case of CC(=O)[C@H]1CC[C@H]2[C@@H]3CC[C@@H]4C[C@@H](O)CC[C@]4(C)[C@H]3CC[C@]12C [Epi, 3β-hydroxy-5β-pregnan-20-one], the EC50 [2] is reported as 9.3 ± 2.9 µM and the EC50 [1] is reported as 5.7 ± 1.9 µM.

For CC(=O)[C@H]1CC[C@H]2[C@@H]3CC[C@H]4C[C@@H](O)CC[C@]4(C)[C@H]3CC[C@]12C [Iso, 3β-hydroxy-5α-pregnan-20-one], the “% of control current at 100 μM” value [3] was 84 ± 4%.
